The values below are quoted from earlier work in US3931141A, “Novel heptapeptides having gastrin activity” (Hoechst Aktiengesellschaft, priority 1972, dated 1976).

In this data set the test system is stomach. To be noted: The Lancet 1966, page 933.

Turning to “Boc--β--Ala--Trp--Met--Asp--Phe--NH2 [formula IV]”, the “stimulating action (acid production and quantity secreted) compared with other synthetic peptides” value is on record as “strongest stimulating action”.
